Consider 18 molecules from patent US11439633B2, “Tetrahydroquinoline derivatives as P2X7 receptor antagonists” (RaQualia Pharma Inc., priority 2017, dated 2022).

Chain of human P2X7 (Q99572 whole entry): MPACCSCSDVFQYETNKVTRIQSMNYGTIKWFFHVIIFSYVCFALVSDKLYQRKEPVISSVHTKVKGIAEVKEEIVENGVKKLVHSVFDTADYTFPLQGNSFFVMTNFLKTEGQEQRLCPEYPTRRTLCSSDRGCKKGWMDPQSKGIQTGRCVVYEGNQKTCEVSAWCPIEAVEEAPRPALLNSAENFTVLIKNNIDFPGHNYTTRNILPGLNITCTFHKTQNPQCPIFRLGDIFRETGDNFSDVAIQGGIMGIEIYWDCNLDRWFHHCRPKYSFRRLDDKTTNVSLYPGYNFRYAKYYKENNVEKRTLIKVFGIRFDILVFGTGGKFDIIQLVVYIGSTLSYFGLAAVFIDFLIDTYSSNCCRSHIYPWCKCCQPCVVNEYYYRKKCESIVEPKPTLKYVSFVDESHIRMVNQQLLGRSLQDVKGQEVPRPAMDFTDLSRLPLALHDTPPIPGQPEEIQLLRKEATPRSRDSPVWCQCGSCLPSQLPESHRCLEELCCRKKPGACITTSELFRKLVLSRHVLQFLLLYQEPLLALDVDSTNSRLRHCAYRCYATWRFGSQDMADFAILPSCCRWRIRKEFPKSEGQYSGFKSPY

One assay has as its target human P2X7 (Homo sapiens (Human), UniProt Q99572). Briefly: Human P2X7 functional assay (Ca2+ influx, Fluo-4, FDSS, BzATP activation). Type of assay: cell-based. Particulars: antagonistic activity with respect to the human P2X7 receptor; BzATP final concentration 80 microM; 7-point dose-response. As for the experimental part:
Human P2X7 Functional Assay
(§1) The functional activity of compounds was determined by measuring changes in intracellular calcium concentration using a Ca^2+-sensitive fluorescent dye, Fluo-4 (Molecular Probes). The changes in fluorescent signal were monitored by the cell imaging technology by Hamamatsu Photonics's Functional Drug Screening System (FDSS). Increases in intracellular Ca^2+ concentration were readily detected upon activation with BzATP.
HEK293 cells stably expressing human P2X7 (GenBank accession number BC011913) carrying a C-terminal FLAG tag were grown in T225 flasks, in a 5% CO2 humidified incubator to about 80% confluence. Media composition consisted of Dulbecco's Modified Eagle Medium (high glucose), 10% fetal bovine serum ([…]), 100 units/[…] Penicillin, 100 microg/mL Streptomycin and 250 microg/mL Geneticine.
1. Plate-out HEK293-human P2X7 cells (40 microL medium containing 10,000 cells per well) into poly-D-lysine coated 384-well plates (Corning) at 24 h prior to assay.
2. Incubate at 37° C. in 5% CO2.
3. Incubate the plate at 37° C. in 5% CO2 for 1 h.
5. Test compounds were prepared at 100× the test concentration in DMSO by serial dilution with Biomek-FX liquid handling instrument. 33× diluted compound solutions in assay buffer were prepared in intermediate compound plate with Biomek-NX liquid handling instrument. A further 3× dilution occurred in below steps 6 and 7.
6. Add 20 microL of 33× diluted compound solutions into each well and leave the plate for 10 min under the dark at room temperature.
7. Measure activity by FDSS as follows: • Set the assay plate on the stacker of FDSS. • Start the detection of fluorescence intensity at 540 nm by 480 nm exicitation. • After 30 seconds, add 20 microL of assay buffer containing 240 microM BzATP (final concentration 80 microM).
IC50 values for compounds of the present invention were determined from 7-point dose-response studies. Curves were generated using the average of duplicate wells for each data point. Finally, the IC50 values are calculated with the best-fit dose curve determined by XLfit (ID Business Solutions Ltd.).
The IC50 is the concentration needed to halve the response being measured. For `O=C(NCc1c(F)cccc1C(F)(F)F)[C@]1(F)CC[C@H](O)c2ncccc21` [Example 186, (5S,8S)-5-fluoro-N-(2-fluoro-6-(trifluoromethyl)benzyl)-8-hydroxy-5,6,7,8-tetrahydroquinoline-5-carboxamide], the IC50 was less than 0.05 µM.

Regarding `O=C(NCc1c(F)cc(Cl)cc1Cl)[C@]1(F)CC[C@H](O)c2ncccc21` [Example 152, (5S,8S)-N-(2,4-dichloro-6-fluorobenzyl)-5-fluoro-8-hydroxy-5,6,7,8-tetrahydroquinoline-5-carboxamide], the half-maximal inhibitory concentration (IC50) is less than 0.05 µM.

Consider `O=C(NCc1ccc(F)cc1C(F)(F)F)[C@]1(F)CC[C@H](O)c2ncccc21` [Example 144, (5S,8S)-5-fluoro-N-(4-fluoro-2-(trifluoromethyl)benzyl)-8-hydroxy-5,6,7,8-tetrahydroquinoline-5-carboxamide], for which the half-maximal inhibitory concentration (IC50) was less than 0.05 µM.

In the case of `CS(=O)(=O)C1CC[C@@](F)(C(=O)NCc2ccc(Cl)cc2Cl)c2cccnc21` (stereo partly drawn) [Example 350, (5S)-N-(2,4-dichlorobenzyl)-5-fluoro-8-(methylsulfonyl)-5,6,7,8-tetrahydroquinoline-5-carboxamide], the 50% inhibitory concentration (IC50) is less than 0.05 µM.

The molecule `Cc1cc(Cl)cc(Cl)c1CNC(=O)[C@@]1(F)CC[C@@H](O)c2ncccc21` [Example 126, (5R,8R)-N-(2,4-dichloro-6-methylbenzyl)-5-fluoro-8-hydroxy-5,6,7,8-tetrahydroquinoline-5-carboxamide] showed a half-maximal inhibitory concentration (IC50) of less than 0.05 µM.

`O=C(NCCc1ccc(Cl)cc1Cl)[C@]1(F)CC[C@H](O)c2ncccc21` [Example 191, (5S,8S)-N-(2,4-dichloro-phenethyl)-5-fluoro-8-hydroxy-5,6,7,8-tetrahydro-quinoline-5-carboxamide] returned a 50% inhibitory concentration (IC50) of less than 0.05 µM.

`O=C(NCc1ccc(F)c(F)c1Cl)[C@]1(F)CC[C@H](O)c2ncccc21` [Example 174, (5S,8S)-N-(2-chloro-3,4-difluorobenzyl)-5-fluoro-8-hydroxy-5,6,7,8-tetra-hydroquinoline-5-carboxamide] returned an IC50 of less than 0.05 µM.

In the case of `O=C(NCc1c(Cl)cc(Cl)cc1CO)C1CCC(O)c2ncccc21` (stereo not drawn) [Example 9, N-(2,4-dichloro-6-(hydroxymethyl)benzyl)-8-hydroxy-5,6,7,8-tetrahydroquinoline-5-carboxamide], the 50% inhibitory concentration (IC50) was less than 0.05 µM.

Turning to `O=C(NCc1cc(Br)ccc1Cl)[C@]1(F)CC[C@H](O)c2ncccc21` [Example 181, (5S,8S)-N-(5-bromo-2-chlorobenzyl)-5-fluoro-8-hydroxy-5,6,7,8-tetra-hydroquinoline-5-carbox-amide], the 50% inhibitory concentration (IC50) was less than 0.05 µM.

For the molecule `C[C@]1(O)CC[C@@](F)(C(=O)NC2CC2c2ccc(Cl)cc2Cl)c2cccnc21` (stereo partly drawn) [Example 273, (5S,8S)-N-((trans)-2-(2,4-dichlorophenyl)cyclopropyl)-5-fluoro-8-hydroxy-8-methyl-5,6,7,8-tetrahydro-quinoline-5-carboxamide], the IC50 was less than 0.05 µM.

`O=C(NCc1cccc(C(F)(F)F)c1F)[C@]1(F)CC[C@H](O)c2ncccc21` [Example 175, (5S,8S)-5-fluoro-N-(2-fluoro-3-(trifluoromethyl)benzyl)-8-hydroxy-5,6,7,8-tetrahydroquinoline-5-carboxamide] showed an IC50 of less than 0.05 µM.

In turn, `C[C@]1(O)CC[C@@](F)(C(=O)NCc2c(F)cc(F)cc2Cl)c2cccnc21` [Example 266, (5S,8S)-N-(2-chloro-4,6-difluorobenzyl)-5-fluoro-8-hydroxy-8-methyl-5,6,7,8-tetrahydroquinoline-5-carboxamide] showed a half-inhibitory concentration (IC50) of less than 0.05 µM.

In turn, `Cc1cccc(Cl)c1CNC(=O)[C@]1(F)CC[C@H](O)c2ncccc21` [Example 161, (5S,8S)-N-(2-chloro-6-methylbenzyl)-5-fluoro-8-hydroxy-5,6,7,8-tetra-hydroquinoline-5-carbox-amide] yielded an IC50 of less than 0.05 µM.

Turning to `CO[C@H]1CC[C@@](F)(C(=O)NCc2c(F)cc(Cl)cc2Cl)c2cccnc21` [Example 335, (5S,8S)-N-(2,4-dichloro-6-fluorobenzyl)-5-fluoro-8-methoxy-5,6,7,8-tetrahydroquinoline-5-carboxamide], the concentration for half-maximal inhibition (IC50) was less than 0.05 µM.

As to `C[C@]1(O)CC[C@@](F)(C(=O)NCc2c(F)cc(Cl)cc2Cl)c2cccnc21` [Example 265, (5S,8S)-N-(2,4-dichloro-6-fluorobenzyl)-5-fluoro-8-hydroxy-8-methyl-5,6,7,8-tetrahydroquinoline-5-carboxamide], the half-inhibitory concentration (IC50) was less than 0.05 µM.

For `Cc1cc(Cl)cc(Cl)c1CNC(=O)[C@]1(F)CC[C@H](O)c2ncccc21` [Example 127, (5S,8S)-N-(2,4-dichloro-6-methylbenzyl)-5-fluoro-8-hydroxy-5,6,7,8-tetrahydroquinoline-5-carboxamide], the IC50 was less than 0.05 µM.

`C[C@]1(O)CC[C@@](F)(C(=O)NCc2ccc(Cl)c(F)c2F)c2cccnc21` [Example 267, (5S,8S)-N-(4-chloro-2,3-difluorobenzyl)-5-fluoro-8-hydroxy-8-methyl-5,6,7,8-tetrahydroquinoline-5-carboxamide]: the IC50 is less than 0.05 µM.

A further assay deals with rat P2X7 (Rattus norvegicus (Rat), UniProt Q64663). As to the kind of experiment: Rat P2X7 functional assay (Ca2+ influx, Fluo-4, FDSS, BzATP activation). Particulars: HEK293 cells stably expressing rat P2X7; BzATP final 10 microM; read-out: Antagonistic activities with respect to the rat P2X7 receptor (IC50). Type of assay: cell-based. As for the experimental part: Rat P2X7 Functional Assay
Chain of rat P2X7 (Q64663 whole entry): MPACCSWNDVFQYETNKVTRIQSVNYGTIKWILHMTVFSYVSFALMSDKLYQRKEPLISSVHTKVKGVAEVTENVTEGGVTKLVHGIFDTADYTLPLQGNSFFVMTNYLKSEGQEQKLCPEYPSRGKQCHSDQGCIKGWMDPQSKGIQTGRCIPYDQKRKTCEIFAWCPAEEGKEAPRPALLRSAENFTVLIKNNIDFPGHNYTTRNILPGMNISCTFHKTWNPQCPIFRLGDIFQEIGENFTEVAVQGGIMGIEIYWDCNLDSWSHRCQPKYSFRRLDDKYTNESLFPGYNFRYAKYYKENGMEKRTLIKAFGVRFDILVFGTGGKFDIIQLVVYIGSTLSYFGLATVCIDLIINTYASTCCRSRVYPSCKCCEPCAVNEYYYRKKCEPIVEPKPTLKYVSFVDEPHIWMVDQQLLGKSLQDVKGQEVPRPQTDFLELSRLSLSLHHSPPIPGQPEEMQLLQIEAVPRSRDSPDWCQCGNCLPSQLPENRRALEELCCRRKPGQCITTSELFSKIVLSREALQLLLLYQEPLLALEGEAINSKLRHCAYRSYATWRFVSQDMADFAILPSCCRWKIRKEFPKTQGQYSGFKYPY
as §1
HEK293 cells stably expressing rat P2X7 (GenBank accession number NM_019256) were grown in Corning CellBIND cell culture flasks, in a 5% CO2 humidified incubator to about 80% confluence. Media composition consisted of Dulbecco's Modified Eagle Medium (high glucose), 10% fetal bovine serum ([…]), 100 units/[…] Penicillin, 100 microg/mL Streptomycin and 250 microg/mL Geneticine.
1. […]
7. Measure activity by FDSS as follows: • Set the assay plate on the stacker of FDSS. • Start the detection of fluorescence intensity at 540 nm by 480 nm exicitation. • After 30 seconds, add 20 microL of assay buffer containing 30 microM BzATP (final 10 microM).
IC50 values for compounds of the present invention were determined from 7-point dose-response studies. […] Finally, the IC50 values are calculated with the best-fit dose curve determined by XLfit (ID Business Solutions Ltd.).
Regarding `Cc1cc(Cl)cc(Cl)c1CNC(=O)[C@@H]1CC[C@H](O)c2ncccc21` [Example 64, (5R,8S)-N-(2,4-dichloro-6-methylbenzyl)-8-hydroxy-5,6,7,8-tetrahydroquinoline-5-carboxamide], the IC50 was less than 1 µM.
